Reference: PubChem BioAssay (NCI)
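Briefly, cells in 96-well plates were exposed to five compound concentrations for 48 h, and endpoints were estimated by linear interpolation. GI50 = concentration required for 50% inhibition of growth. TGI denotes the concentration required for complete inhibition of growth.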

What was measured:
Experiment in all cases: NCI tumour cell line growth inhibition, 48 h
COLO 205 colon = test system: COLO 205 colon
HCT-15 colon = test system: HCT-15 colon
MDA-MB-231 breast = test system: MDA-MB-231 breast
NCI-H226 lung = test system: NCI-H226 lung
NCI-H23 lung = test system: NCI-H23 lung
OVCAR-4 ovarian = test system: OVCAR-4 ovarian
PC-3 prostate = test system: PC-3 prostate
SF-295 CNS = test system: SF-295 CNS
SNB-19 CNS = test system: SNB-19 CNS
SW-620 colon = test system: SW-620 colon

Row | Structure (SMILES) | GI50 (COLO 205 colon) [µM] | TGI (COLO 205 colon) [µM] | GI50 (HCT-15 colon) [µM] | TGI (HCT-15 colon) [µM] | GI50 (MDA-MB-231 breast) [µM] | TGI (MDA-MB-231 breast) [µM] | GI50 (NCI-H226 lung) [µM] | TGI (NCI-H226 lung) [µM] | GI50 (NCI-H23 lung) [µM] | TGI (NCI-H23 lung) [µM] | GI50 (OVCAR-4 ovarian) [µM] | TGI (OVCAR-4 ovarian) [µM] | GI50 (PC-3 prostate) [µM] | TGI (PC-3 prostate) [µM] | GI50 (SF-295 CNS) [µM] | TGI (SF-295 CNS) [µM] | GI50 (SNB-19 CNS) [µM] | TGI (SNB-19 CNS) [µM] | GI50 (SW-620 colon) [µM] | TGI (SW-620 colon) [µM]
1 | Nc1ccc(-c2nc3ccccc3[nH]2)c2ccccc12 | 3.41 | 24.6 | 6.35 | 20.8 | 8.16 | > 41.7 | 8.44 | 37.9 | 3.24 | > 30.3 | 8.26 | > 72.5 | 6.49 | > 100 | 1.56 | > 28.9 | 3.57 | > 100 | 1.4 | > 100
2 | COC12c3ccccc3-c3ccccc3C1[C@H]1C(=O)OC(=O)[C@H]12 (stereo partly drawn) | – | > 10 | – | > 10 | – | > 10 | – | > 10 | – | > 10 | – | > 10 | – | > 10 | – | > 10 | – | > 10 | – | > 10
3 | BrCc1ccc(CBr)cc1 | 0.146 | > 100 | 5.44 | > 75.2 | 13.9 | 35.1 | 5.37 | 15.6 | 10.7 | > 35.4 | 8.96 | 22.4 | 5.3 | – | 5.12 | 15.8 | 0.528 | 25.8 | 5.1 | 17.6
4 | CC1(C)N=C(N)N=C(N)N1c1ccc(CCCCc2ccc(S(=O)(=O)F)cc2)c(Cl)c1 | 0.34 | 18.7 | 0.593 | > 100 | 1.76 | 21.2 | 0.626 | 25.9 | 0.363 | 19.5 | 5.18 | 22 | 0.0493 | 15.9 | 0.636 | 18.2 | 0.773 | 19.1 | 0.0527 | 14.7
5 | CN(CCCCCl)P(=O)(OCCS(=O)(=O)CC(NC(=O)CCC(N)C(=O)O)C(=O)NC(C(=O)O)c1ccccc1)OCC1OC(n2cc(F)c(=O)[nH]c2=O)CC1O (stereo not drawn) | 10.1 | > 100 | 1.32 | 46.6 | 8.96 | 68.6 | 0.628 | > 100 | 0.27 | > 33.7 | 8.27 | > 100 | 0.882 | > 36.1 | 0.0368 | > 53.8 | 1.3 | > 100 | 1.28 | > 64.4
6 | C[CH2][Pb]([CH2]C)([CH2]C)[O]C(=O)c1ccc2ccccc2n1 | > 10 | > 10 | > 10 | > 10 | > 10 | > 10 | > 10 | > 10 | > 10 | > 10 | > 10 | > 10 | > 10 | > 10 | > 10 | > 10 | > 10 | > 10 | > 10 | > 10
7 | CCN1C(=O)N(CC)C2C1NN=c1s/c(=C3\C(=O)N(CCc4ccccc4)c4ccccc43)c(=O)n12 (stereo not drawn) | 0.322 | 1.8 | 0.351 | > 34.2 | 0.844 | 7.51 | 0.811 | 3.78 | 0.794 | 14.3 | 1.13 | > 100 | 0.415 | > 21.8 | 0.363 | 7.75 | 0.845 | 19.6 | 0.492 | > 100
8 | CC(C)(C)CN1CCn2c(nc3c(N)nccc32)S1 | 4.02 | 16.3 | 3.92 | 26.2 | 19.8 | > 100 | 37.2 | > 100 | 5.17 | 34 | 13.6 | 40.1 | 11 | > 100 | 12 | > 100 | 32.8 | > 100 | 4.16 | 30.1
9 | COc1ccc(/C=N/NC(=O)Cn2c(-c3ccc(S(C)(=O)=O)cc3)nc3cc(Cl)ccc32)cc1 | 0.907 | 2.42 | 0.653 | > 50 | 2.48 | > 50 | 1.63 | > 50 | 2.39 | > 50 | 2.53 | > 50 | 0.674 | > 50 | 1.47 | > 50 | 1.53 | > 50 | 1.21 | > 50
10 | Cc1cccc(NC(=O)c2sc3nc4c(cc3c2N)CN(Cc2ccccc2)CC4)c1C | 0.274 | > 50 | 0.176 | > 50 | 0.432 | > 50 | 1.64 | > 50 | 0.256 | > 50 | 0.971 | 39 | 0.21 | > 50 | 0.161 | 41.6 | 0.283 | > 50 | 0.207 | > 50
11 | c1ccc2c3c([nH]c2c1)C1CCCN1CC3 (stereo not drawn) | – | > 10 | – | > 10 | – | > 10 | – | > 10 | – | > 10 | – | > 10 | – | > 10 | – | > 10 | – | > 10 | – | > 10
12 | COc1ccc2c(c1)OC1=C(C(=O)OC1)C2c1cc(OC)c2c(c1)OCO2 (stereo not drawn) | 0.031 | 0.0908 | 0.0464 | > 100 | 0.0689 | > 100 | 0.0489 | – | 0.0441 | > 100 | 0.0597 | > 100 | 0.0403 | > 100 | 0.0283 | > 100 | 0.0531 | > 100 | 0.0407 | > 100
13 | CC1=CC(=O)C(O)C2(C)C1CC(O)C13COC4(C)C(OC(=O)C41)C(O)C23 (stereo not drawn) | 12.1 | 77.1 | 4.47 | 23.4 | 15.4 | 43.9 | 3.48 | 21.2 | 4.8 | 18.6 | 15 | > 100 | 26.4 | > 100 | 8.02 | 39.1 | 7.94 | > 100 | 5.41 | 89.9
14 | CCN(Cc1ccc(Cl)s1)c1ccc(CO)c(Cl)c1 | 1.73 | 5.99 | 4.2 | > 50.6 | 8.74 | 26.4 | 0.0915 | 0.232 | 3.2 | 42.1 | 0.134 | 0.776 | 12.7 | 49.4 | 0.352 | 15.9 | 20.7 | > 93.5 | 0.506 | > 55.2
15 | CCN1C(=O)N(CC)C2C1NN=c1s/c(=C\c3ccccc3Br)c(=O)n12 (stereo not drawn) | 0.03 | 0.118 | 0.0303 | 12.6 | 0.0347 | 11.4 | 0.132 | 4.98 | 0.0552 | 29.6 | 0.069 | 63 | 0.0383 | 44.5 | 0.0286 | 15.1 | 0.052 | > 67.9 | 0.037 | > 54.2
16 | COc1ccc(OC)c(Cn2cc3c(c2)-c2oncc2CC3)c1 | 3.56 | 13.6 | 2.92 | > 100 | 5.02 | > 72 | 7.67 | > 100 | 3.8 | > 90.2 | 5.74 | > 100 | 5.89 | > 100 | 2.43 | 11.1 | 4.74 | > 100 | 2.87 | > 100
17 | CC(C)=CCC/C(C)=C/CC/C(C)=C/CC/C=C(\C)CC/C=C(\C)CCC(=O)Nc1ccn(C2OC(CO)C(O)C2(F)F)c(=O)n1 (stereo not drawn) | 0.0982 | 12.6 | 0.691 | 28 | 12.8 | 27.1 | 2.5 | 20.4 | 0.0324 | 12.4 | 1.91 | 8.67 | 1.19 | 20.5 | 0.0329 | 0.154 | 0.0245 | 11.7 | 0.48 | 21.4
18 | CC(=O)c1c(C(F)(F)F)n([O-])c2ccc(C)cc2[n+]1=O | 3.35 | > 43.8 | 2.45 | 39.4 | 1.82 | 5.52 | 1.71 | 6.85 | 2.08 | 11.2 | 4.88 | > 100 | 1.34 | 14.1 | 5.71 | > 44.2 | 6.03 | > 100 | 3.54 | > 100
19 | COc1ccc2cc(-c3c(-c4ccncc4)nc(-c4ccc(S(C)=O)cc4)n3C)ccc2c1 (stereo not drawn) | 17 | > 25 | 9.57 | > 25 | > 25 | > 25 | > 9.95 | > 25 | > 25 | > 25 | 20.6 | > 25 | > 21.3 | > 25 | > 22.4 | > 25 | > 20.8 | > 25 | > 25 | > 25
